Assay results: patent US20070059720A9 (priority 2004, published 2007)

Key:
[1] = system: MCF-7 vector control cells; assay: Anchorage-independent soft agar colony formation, MCF-7 vector control cells; assay type: cell-based, human; settings: MCF-7 vector control cells; 1 nM estradiol or 100 nM 4-OH-Tam; 14 days
Procedure: Cells were starved for 2 days in PRF MEM (InVitrogen) supplemented with 5% fetal bovine serum (FBS, Summit Biotechnology, Fort Collins, Colo.), 6 ng/ml insulin, 200 units/ml penicillin, and 200 μg/ml streptomycin. Soft agar assays were performed in sixwell plates. Into each well, 1.5 ml of prewarmed (50° C.) 0.7% SeaPlaque agarose (FMC, Rockland, Me.) was added and dissolved in PRF MEM supplemented with 5% charcoal stripped FBS (Summit, Fort Collins, Colo.) to serve as the bottom layer, and allowed to solidify at 4° C. until to use. 0.5×10^4 cells as a single cell suspension were suspended in prewarmed (37° C.) of the same media, 4 ml of 0.5% SeaPlaque agarose was then added, and this suspension then plated as the top layer by adding it dropwise to the solidified bottom layer plates. Plates were cooled for 2 hours, and then transferred to a 37° C. humidified incubator. Two days after plating, media containing control vehicle, 1 nM estradiol, 100 nM 4-OH-Tam, 100 nM OHT plus 10 nM ICI, or 100 nM OHT plus 20 nM […] was added to the top cell layer, and the appropriate media was replaced every two days. After 14 days, the colonies were fixed, and the colony number of colonies >50 cells from quadruplicate assays were then counted. The data shown is the mean colony number of four plates, and is representative of two independent experiments.
In pancreatic cells, ectopic expression of MKP3 is reported to result in a suppression of cell growth (Fuqua et al., 2003). Thus, the growth characteristics of the MCF-7 stable MKP3 transfectants under different hormonal conditions were investigated using anchorageindependent soft agar assay (FIG. 4B).

[2] = system: MCF-7-MKP3 xenografts; assay: Xenograft growth of MCF-7 vector control and MKP3-transfected cells in athymic nude mice; assay type: in vivo
Procedure: MCF-7 vector control and MKP3-transfected cells were established as xenografts in ovariectomized 5- to 6-week-old BALB/c athymic nude mice (Harlan Sprague Dawley, Madison, Wis.) supplemented with 0.25-mg 21-day-release E2 pellets (Innovative Research, Sarasota, Fla.) by inoculating the mice subcutaneously with 5×10^6 cells, as described previously (Osborne et al., 1995). […] Tumor growth was assessed and tumor volumes were measured as described previously (Osborne et al., 1995). Mice were anesthetized with isoflurane before tumor removal; tumor tissues were kept at […] for later analyses. Animal care was in accordance with institutional guidelines.
To analyze the endocrine sensitivity of the MKP3-overexpressing cells in more detail in vivo, the ability of MCF-7-vector control 1 and MCF-7-MKP3-2 transfectants to form tumors in athymic mice was examined. Xenografts were established in ovariectomized mice supplemented with estrogen for 21 days. […] This was examined by fitting the data in an exponential growth model, and testing whether growth rates were different between the groups; the analyses were done separately for estrogen-treated (FIG. 4C, left panel) and Tam-treated animals (right panel). There was no difference in the estrogen-stimulated growth of the MCF-7-vector control and MKP3-overexpressing cells (P=0.52).

[3] = molecular target: T1, MKP3 (Homo sapiens, UniProt Q16828); assay: Phosphatase assay with pNPP on V5 immunoprecipitates of treated MKP3 cells; assay type: biochemical; settings: MKP3 transfectants treated 2 hours; relative to control-treated (intermediate)
T1 construct: expressed in transfected cells
T1 sequence (Q16828 1-381): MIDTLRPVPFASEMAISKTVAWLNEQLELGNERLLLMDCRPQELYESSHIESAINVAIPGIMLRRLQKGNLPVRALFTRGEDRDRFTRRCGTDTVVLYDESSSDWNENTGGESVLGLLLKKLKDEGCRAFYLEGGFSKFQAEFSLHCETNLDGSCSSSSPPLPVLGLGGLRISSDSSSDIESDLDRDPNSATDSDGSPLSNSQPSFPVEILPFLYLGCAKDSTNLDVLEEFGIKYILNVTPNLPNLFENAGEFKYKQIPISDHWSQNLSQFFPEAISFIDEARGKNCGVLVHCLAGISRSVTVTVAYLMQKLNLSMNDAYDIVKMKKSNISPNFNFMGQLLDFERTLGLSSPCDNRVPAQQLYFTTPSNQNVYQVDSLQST
Procedure: MKP3-overexpressing cells and control vector transfected cells were treated as described above with ethanol, E2, or 4-OH-Tam, and lysed in buffer B containing 20 mM Tris-HCl (pH 7.0), 150 mM NaCl, 1% Triton X-100, 0.25 M sucrose, 1 mM EDTA, 1 mM EGTA, 0.1% β-mercaptoethanol, 1 mM PMSF, and 1 μg/ml leupeptin. The cell lysates were cleared and the protein concentrations were determined as detailed above. 300 μg of cell lysate at 1 μg/μl was immunoprecipitated by the addition of 1 μg anti-V5 antiserum, and 20 μl 50% protein G slurry. […] The reactions were then quenched by the addition of 20 μl 5N NaOH, and pNPP hydrolysis was measured at 405 nm. […] The amount of product p-nitrophenol was determined from the absorbance at 405 nm. […]
The observed changes in pMAPK levels in MKP3 overexpressing cells was further characterized. […] Using the artificial substrate pNPP to measure endogenous phosphatase activity, there was an inverse relationship between measured phosphatase activity and pMAPK levels in the MKP3 transfectants. […] There were no observed changes in the ability of MKP3 to bind to MAPK, as measured by co-immunoprecipitation and immunoblot analysis (FIG. 5H). When the levels of MKP3-bound ERK2 were compared between the different hormonal treatments, no differences were detected (C, E, T, IP:V5 lanes). […]

SMILES	number of colonies in soft agar [1]	tumor growth rate, MKP3-expressing versus vector control xenografts ([2]; estrogen withdrawal plus tamoxifen citrate 500 μg/animal s.c. 5 days/week, P=0.047)	MKP3 phosphatase activity (pNPP hydrolysis) [3]	tumor growth rate, MKP3-overexpressing versus vector control xenografts ([2]; estrogen-treated animals, P=0.52)
CC/C(=C(\c1ccccc1)c1ccc(OCCN(C)C)cc1)c1ccccc1 [Tam, tamoxifen]	reduced the number of colonies	significantly increased	lowest	
C[C@]12CC[C@@H]3c4ccc(O)cc4CC[C@H]3[C@@H]1CC[C@@H]2O [E2, 17β-Estradiol]	increased the number of colonies		highest	no difference
